From BindingDB's records for doi:10.1111/j.1432-1033.1991.tb15734.x (Universit&Eacute, 1991)
“And” between values parts separate entries of the source, which are not always exact repeats. Identical values can stand only once. Non-standard residues stand in square brackets, D forms with d. Residues, ends and D or L forms follow the SMILES beside them. ξ: configuration not given here. Ile(3ξ) = CCC(C)[C@H](N)C(=O)O

Columns and labels:
[1] = target: T1, VIP peptides (Homo sapiens, UniProt P01282)
T1 sequence (P01282 whole entry): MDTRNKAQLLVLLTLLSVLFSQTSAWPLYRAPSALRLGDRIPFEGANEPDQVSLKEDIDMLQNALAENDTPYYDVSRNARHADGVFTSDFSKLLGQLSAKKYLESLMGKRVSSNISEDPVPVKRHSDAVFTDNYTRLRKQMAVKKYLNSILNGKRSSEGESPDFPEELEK

[2] = target: T2, VIP peptides (Rattus norvegicus, UniProt P01283)
T2 sequence (P01283 whole entry): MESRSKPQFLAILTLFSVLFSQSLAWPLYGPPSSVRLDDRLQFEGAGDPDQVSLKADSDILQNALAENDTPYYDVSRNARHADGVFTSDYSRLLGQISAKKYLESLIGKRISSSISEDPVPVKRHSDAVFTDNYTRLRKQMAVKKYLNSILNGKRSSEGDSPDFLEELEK

Compound	Ki [1] [nM]	Ki [2]
CC[C@H](C)[C@H](NC(=O)[C@H](CO)NC(=O)[C@H](CC(N)=O)NC(=O)[C@H](CC(C)C)NC(=O)[C@H](Cc1ccc(O)cc1)NC(=O)[C@H](CCCCN)NC(=O)[C@H](CCCCN)NC(=O)[C@@H](NC(=O)[C@H](C)NC(=O)[C@H](CCSC)NC(=O)[C@H](CCC(N)=O)NC(=O)[C@H](CCCCN)NC(=O)[C@H](CCCN=C(N)N)NC(=O)[C@H](CC(C)C)NC(=O)[C@H](CCCN=C(N)N)NC(=O)[C@@H](NC(=O)[C@H](Cc1ccc(O)cc1)NC(=O)[C@H](CC(N)=O)NC(=O)[C@H](CC(=O)O)NC(=O)[C@@H](NC(=O)[C@H](Cc1ccccc1)NC(=O)[C@@H](NC(=O)[C@H](C)NC(=O)[C@H](CC(=O)O)NC(=O)[C@H](CO)NC(=O)[C@@H](N)Cc1cnc[nH]1)C(C)C)[C@@H](C)O)[C@@H](C)O)C(C)C)C(=O)N[C@@H](CC(C)C)C(=O)N[C@@H](CC(N)=O)C(=O)O [CAS_37221-79-7]	150	–
H-HSDGIFTDSYTRLRKQMAVKKYLNSILN-OH [PACAP-VIP]	8	–
CCC(C)[C@H](NC(=O)CNC(=O)[C@H](CC(=O)O)NC(=O)[C@@H](N)CO)C(=O)N[C@@H](Cc1ccccc1)C(=O)N[C@H](C(=O)N[C@@H](CC(=O)O)C(=O)N[C@@H](CO)C(=O)N[C@@H](Cc1ccc(O)cc1)C(=O)N[C@@H](CO)C(=O)N[C@@H](CCCN=C(N)N)C(=O)N[C@@H](Cc1ccc(O)cc1)C(=O)N[C@@H](CCCN=C(N)N)C(=O)N[C@@H](CCCCN)C(=O)N[C@@H](CCC(N)=O)C(=O)N[C@@H](CCSC)C(=O)N[C@@H](C)C(=O)N[C@H](C(=O)N[C@@H](CCCCN)C(=O)N[C@@H](CCCCN)C(=O)N[C@@H](Cc1ccc(O)cc1)C(=O)N[C@@H](CC(C)C)C(=O)N[C@@H](C)C(=O)N[C@@H](C)C(=O)N[C@H](C(=O)N[C@@H](CC(C)C)C(=O)NCC(=O)N[C@@H](CCCCN)C(=O)N[C@@H](CCCN=C(N)N)C(=O)N[C@@H](Cc1ccc(O)cc1)C(=O)N[C@@H](CCCCN)C(=O)N[C@@H](CCC(N)=O)C(=O)N[C@@H](CCCN=C(N)N)C(=O)N[C@H](C(=O)N[C@@H](CCCCN)C(=O)N[C@@H](CC(N)=O)C(=O)N[C@@H](CCCCN)C(N)=O)C(C)C)C(C)C)C(C)C)[C@@H](C)O (stereo partly drawn) [PACAP(2-38)] (H-SDG[Ile(3ξ)]FTDSYSRYRKQMAVKKYLAAVLGKRYKQRVKNK-NH2)	2	10 nM and 4 nM and 30 nM
CC[C@H](C)[C@H](NC(=O)CNC(=O)[C@H](CC(=O)O)NC(=O)[C@H](CO)NC(=O)[C@@H](N)Cc1cnc[nH]1)C(=O)N[C@@H](Cc1ccccc1)C(=O)N[C@H](C(=O)N[C@@H](CC(=O)O)C(=O)N[C@@H](CO)C(=O)N[C@@H](Cc1ccc(O)cc1)C(=O)N[C@@H](CO)C(=O)N[C@@H](CCCNC(=N)N)C(=O)N[C@@H](Cc1ccc(O)cc1)C(=O)N[C@@H](CCCNC(=N)N)C(=O)N[C@@H](CCCCN)C(=O)N[C@@H](CCC(N)=O)C(=O)N[C@@H](CCSC)C(=O)N[C@@H](C)C(=O)N[C@H](C(=O)N[C@@H](CCCCN)C(=O)N[C@@H](CCCCN)C(=O)N[C@@H](Cc1ccc(O)cc1)C(=O)N[C@@H](CC(C)C)C(=O)N[C@@H](C)C(=O)N[C@@H](C)C(=O)N[C@H](C(=O)N[C@@H](CC(C)C)C(=O)NCC(=O)N[C@@H](CCCCN)C(=O)N[C@@H](CCCNC(=N)N)C(=O)N[C@@H](Cc1ccc(O)cc1)C(=O)N[C@@H](CCCCN)C(=O)N[C@@H](CCC(N)=O)C(=O)N[C@@H](CCCNC(=N)N)C(=O)N[C@H](C(=O)N[C@@H](CCCCN)C(=O)N[C@@H](CC(N)=O)C(=O)N[C@@H](CCCCN)C(N)=O)C(C)C)C(C)C)C(C)C)[C@@H](C)O [PACAP]	–	0.9 nM and 0.3 nM
H-HSDAVFTDNYTRLRKQMAVKKYLAAVL-NH2 [VIP-PACAP]	100	–
CC[C@H](C)[C@H](NC(=O)CNC(=O)[C@H](CCC(=O)O)NC(=O)[C@H](CO)NC(=O)[C@@H](N)Cc1cnc[nH]1)C(=O)N[C@@H](Cc1ccccc1)C(=O)N[C@H](C(=O)N[C@@H](CC(=O)O)C(=O)N[C@@H](CO)C(=O)N[C@@H](Cc1ccc(O)cc1)C(=O)N[C@@H](CO)C(=O)N[C@@H](CCCNC(=N)N)C(=O)N[C@@H](Cc1ccc(O)cc1)C(=O)N[C@@H](CCCNC(=N)N)C(=O)N[C@@H](CCCCN)C(=O)N[C@@H](CCC(N)=O)C(=O)N[C@@H](CCSC)C(=O)N[C@@H](C)C(=O)N[C@H](C(=O)N[C@@H](CCCCN)C(=O)N[C@@H](CCCCN)C(=O)N[C@@H](Cc1ccc(O)cc1)C(=O)N[C@@H](CC(C)C)C(=O)N[C@@H](C)C(=O)N[C@@H](C)C(=O)N[C@H](C(=O)N[C@@H](CC(C)C)C(N)=O)C(C)C)C(C)C)[C@@H](C)O [PACAP(1-27)]	0.3	1.5 nM and 0.5 nM and 1 nM
[C][C][C]([C])[C@H]([N]C(=O)[C][N]C(=O)[C@H]([C][C]C([O])=O)[N]C(=O)[C@@H]([N])[C][O])C(=O)[N][C@@H]([C]c1ccccc1)C(=O)[N][C@H](C(=O)[N][C@@H]([C]C([O])=O)C(=O)[N][C@@H]([C][O])C(=O)[N][C@@H]([C]c1ccc([O])cc1)C(=O)[N][C@@H]([C][O])C(=O)[N][C@@H]([C][C][C]N=C([N])[N])C(=O)[N][C@@H]([C]c1ccc([O])cc1)C(=O)[N][C@@H]([C][C][C]N=C([N])[N])C(=O)[N][C@@H]([C][C][C][C][N])C(=O)[N][C@@H]([C][C]C([N])=O)C(=O)[N][C@@H]([C][C]S[C])C(=O)[N][C@@H]([C])C(=O)[N][C@@H]([C]([C])[C])C(=O)[N][C@@H]([C][C][C][C][N])C(=O)[N][C@@H]([C][C][C][C][N])C(=O)[N][C@@H]([C]c1ccc([O])cc1)C(=O)[N][C@@H]([C][C]([C])[C])C(=O)[N][C@@H]([C])C(=O)[N][C@@H]([C])C(=O)[N][C@@H]([C]([C])[C])C(=O)[N][C@@H]([C][C]([C])[C])C([N])=O)[C@@H]([C])[O] [PACAP(2-27)]	20	400 nM and 40 nM
H-HSDAVFTDSYTRYRKQMAVKKYLNSILN-NH2 [[Ser9,Tyr13]VIP]	15	–
H-HSDAVFTDNYTRYRKQMAVKKYLNSILN-OH [[Tyr13]VIP]	40	–
H-HSDAVFTDSYTRLRKQMAVKKYLNSILN-NH2 [[Ser9]VIP]	50	–
